Values joined by “and” are separate entries in the source; they are usually repeats but may differ in a detail not shown here. Equal entries are not always repeated. Where two headings read alike, the source gives them in different places.
Legend:
B16 = experiment: MTT cell proliferation assay, B16; format: cell-based, murine; conditions: MTT, 72 h, mean ± SD, triplicate, read-out: IC50 ± SD B16
HCT116 = experiment: MTT cell proliferation assay, HCT116; format: cell-based, human; conditions: MTT, 72 h, mean ± SD, triplicate, read-out: IC50 ± SD HCT116
HDAC8 = target: T1, HDAC8 (Homo sapiens, UniProt Q9BY41); experiment: HDAC enzyme activity assay (fluorogenic, Boc-Lys(trifluoroacetyl)-AMC), HDAC8; format: biochemical; conditions: class I HDAC8; mean ± SD, triplicate
T1 construct: codon-optimized full-length HDAC8; made in house; host or cells: E. coli BL21(DE3), pET14b vector
T1 sequence (Q9BY41 1-377): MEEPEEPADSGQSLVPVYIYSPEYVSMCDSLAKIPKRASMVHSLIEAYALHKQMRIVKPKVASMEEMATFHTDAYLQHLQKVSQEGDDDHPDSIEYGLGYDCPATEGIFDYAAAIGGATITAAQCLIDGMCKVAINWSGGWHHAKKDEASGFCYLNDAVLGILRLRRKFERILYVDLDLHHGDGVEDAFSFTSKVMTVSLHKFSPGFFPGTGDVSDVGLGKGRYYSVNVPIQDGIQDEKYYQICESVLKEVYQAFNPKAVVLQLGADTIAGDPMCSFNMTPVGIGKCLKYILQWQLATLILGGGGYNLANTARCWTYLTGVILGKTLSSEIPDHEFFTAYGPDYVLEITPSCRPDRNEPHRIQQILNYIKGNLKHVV

HDAC4 = target: T2, HDAC4 (Homo sapiens, UniProt P56524); experiment: HDAC enzyme activity assay (fluorogenic, Boc-Lys(trifluoroacetyl)-AMC), HDAC4; format: biochemical; conditions: class IIa HDAC4; mean ± SD, triplicate
T2 construct: catalytic domain of HDAC4 (T648-T1057, full length: UniProt P56524); made in house; host or cells: E. coli BL21(DE3), pET14b vector

MCF7 = experiment: MTT cell proliferation assay, MCF7; format: cell-based, human; conditions: MTT, 72 h, mean ± SD, triplicate, read-out: IC50 ± SD MCF7
HDAC6 = target: T3, HDAC6 (Homo sapiens, UniProt Q9UBN7); experiment: HDAC enzyme activity assay (fluorogenic, Boc-Lys(acetyl)-AMC), HDAC6; format: biochemical; conditions: for IC50: class IIb HDAC6, mean ± SD, triplicate
T3 construct: Full-length recombinant HDAC6 was purchased from BPS Bioscience; purchased BPS Bioscience
T3 sequence (Q9UBN7 1-1215): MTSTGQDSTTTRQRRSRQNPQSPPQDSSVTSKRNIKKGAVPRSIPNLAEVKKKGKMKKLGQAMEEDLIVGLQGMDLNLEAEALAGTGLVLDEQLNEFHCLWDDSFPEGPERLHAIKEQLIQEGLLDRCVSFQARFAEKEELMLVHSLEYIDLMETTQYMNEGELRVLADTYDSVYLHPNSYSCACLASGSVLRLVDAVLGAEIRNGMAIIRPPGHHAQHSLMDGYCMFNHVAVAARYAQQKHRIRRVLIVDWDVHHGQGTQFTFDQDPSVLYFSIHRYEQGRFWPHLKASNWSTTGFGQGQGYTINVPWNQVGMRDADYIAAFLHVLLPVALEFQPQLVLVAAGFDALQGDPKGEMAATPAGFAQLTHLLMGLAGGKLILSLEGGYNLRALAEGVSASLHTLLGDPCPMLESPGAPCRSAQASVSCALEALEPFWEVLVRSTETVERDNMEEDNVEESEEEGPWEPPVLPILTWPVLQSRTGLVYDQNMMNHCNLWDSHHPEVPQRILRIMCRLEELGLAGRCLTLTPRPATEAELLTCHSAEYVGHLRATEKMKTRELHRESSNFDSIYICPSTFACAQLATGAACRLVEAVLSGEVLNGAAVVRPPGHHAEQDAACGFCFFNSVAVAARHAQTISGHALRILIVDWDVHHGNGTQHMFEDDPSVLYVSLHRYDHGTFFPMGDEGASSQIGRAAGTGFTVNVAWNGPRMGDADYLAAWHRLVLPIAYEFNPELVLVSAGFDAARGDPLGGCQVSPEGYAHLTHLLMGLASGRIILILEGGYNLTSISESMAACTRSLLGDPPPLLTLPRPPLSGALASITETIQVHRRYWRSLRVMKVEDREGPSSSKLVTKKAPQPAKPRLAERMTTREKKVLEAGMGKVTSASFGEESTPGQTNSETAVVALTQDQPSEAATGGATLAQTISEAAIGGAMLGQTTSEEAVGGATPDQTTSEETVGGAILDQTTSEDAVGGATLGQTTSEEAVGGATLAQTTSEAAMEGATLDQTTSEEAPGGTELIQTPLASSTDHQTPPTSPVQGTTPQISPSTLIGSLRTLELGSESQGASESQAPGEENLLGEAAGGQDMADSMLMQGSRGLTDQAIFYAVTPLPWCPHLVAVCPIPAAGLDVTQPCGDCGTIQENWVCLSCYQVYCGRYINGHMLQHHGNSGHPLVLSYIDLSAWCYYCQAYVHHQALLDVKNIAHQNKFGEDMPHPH

HEK 293 = experiment: MTT cell proliferation assay, HEK 293; format: cell-based, human; conditions: MTT, 72 h, mean ± SD, triplicate, read-out: IC50 ± SD HEK 293

T2 sequence (P56524 648-1057): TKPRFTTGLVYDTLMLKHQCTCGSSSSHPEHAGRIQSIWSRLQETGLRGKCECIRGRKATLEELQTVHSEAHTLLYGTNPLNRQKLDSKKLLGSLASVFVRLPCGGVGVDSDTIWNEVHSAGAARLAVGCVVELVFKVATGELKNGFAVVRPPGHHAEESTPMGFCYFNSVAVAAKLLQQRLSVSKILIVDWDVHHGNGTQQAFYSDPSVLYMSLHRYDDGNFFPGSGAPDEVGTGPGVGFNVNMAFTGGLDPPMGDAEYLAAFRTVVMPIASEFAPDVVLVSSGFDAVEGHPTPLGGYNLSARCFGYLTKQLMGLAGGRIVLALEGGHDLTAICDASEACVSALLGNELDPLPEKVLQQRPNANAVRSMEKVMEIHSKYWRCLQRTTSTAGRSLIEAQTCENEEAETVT

SMILES	IC50 (B16; Mus musculus, B16)	IC50 (HCT116; Homo sapiens, HCT-116)	IC50 (HDAC8)	IC50 (HDAC4)	IC50 (MCF7; Homo sapiens, MCF7, 72 h)	IC50 (HDAC6)	melting point	IC50 (HEK 293; Homo sapiens, HEK293)	selectivity against class IIa HDAC4 (HDAC6; HDAC6 versus HDAC4)	selectivity against class I HDAC8 (HDAC6; HDAC6 versus HDAC8)	IC50 (B16)	IC50 (HCT116)	IC50 (MCF7)	IC50 (HEK 293)
O=C(NO)c1ccc(CSc2nc3ccccc3c(=O)n2-c2ccc(Cl)cc2)cc1 [Compound 5a, 4-(((3-(4-chlorophenyl)-4-oxo-3,4-dihydroquinazolin-2-yl)thio)methyl)-N-hydroxybenzamide]	48.8 ± 9.68 µM	46.2 ± 20 µM	24 µM	4.5 ± 1.2 µM	26.5 ± 3.5 µM	5.6 ± 0.6 µM		30.9 µM						
O=C(NO)c1ccc(CSc2nc3ccccc3c(=O)n2-c2ccccc2)cc1 [Compound 5b, N-hydroxy-4-(((4-oxo-3-phenyl-3,4-dihydroquinazolin-2-yl)thio)methyl)benzamide]	28.9 ± 2.32 µM	17.6 ± 1.77 µM	1.4 ± 0.3 µM	2.3 ± 1.1 µM	24.3 ± 5.97 µM	0.15 ± 0.01 µM		26.4 ± 5 µM						
CCc1ccc(-n2c(SCc3ccc(C(=O)NO)cc3)nc3ccccc3c2=O)cc1 [Compound 5d, 4-(((3-(4-ethylphenyl)-4-oxo-3,4-dihydroquinazolin-2-yl)thio)methyl)-N-hydroxybenzamide]	29.8 ± 8.72 µM	34.5 ± 10.4 µM	2.3 ± 0.8 µM	0.64 ± 0.37 µM	21.7 ± 2.47 µM	0.28 ± 0.06 µM	150 to 157 °C and 155 to 157 °C	> 50 µM						
O=C(NO)c1ccc(CSc2nc3ccccc3c(=O)n2-c2ccc(Br)cc2)cc1 [Compound 5e, 4-(((3-(4-bromophenyl)-4-oxo-3,4-dihydroquinazolin-2-yl)thio)methyl)-N-hydroxybenzamide]	26.1 ± 1.27 µM	46.4 ± 17.8 µM	3 ± 0.5 µM	1.1 ± 0.4 µM	44.6 ± 1.07 µM	1.1 ± 0.1 µM		> 50 µM						
Cc1ccc(-n2c(SCc3ccc(C(=O)NO)cc3)nc3ccccc3c2=O)cc1C [Compound 5f, 4-(((3-(3,4-dimethylphenyl)-4-oxo-3,4-dihydroquinazolin-2-yl)thio)methyl)-N-hydroxybenzamide]	> 50 µM	> 50 µM	3 ± 1 µM	1.6 ± 0.9 µM	> 50 µM	0.49 ± 0.12 µM	138 to 144 °C and 142 to 144 °C	> 50 µM						
Cc1ccc(-n2c(SCc3ccc(C(=O)NO)cc3)nc3cc(Cl)ccc3c2=O)cc1C [Compound 5o, 4-(((7-chloro-3-(3,4-dimethylphenyl)-4-oxo-3,4-dihydroquinazolin-2-yl)thio)methyl)-N-hydroxybenzamide]	> 50 µM	> 50 µM	14 µM	7.1 ± 1.1 µM	> 50 µM	0.4 µM and 0.39 µM		> 50 µM	18 fold	36 fold				
CC(/C=C/C(=O)NO)=C\[C@@H](C)C(=O)c1ccc(N(C)C)cc1 [Trichostatin A, reference compound]											28.9 ± 13 µM	18.3 ± 5.63 µM	42.5 ± 11.3 µM	15.3 ± 1.45 µM

More lines, main results first:

IC50 (B16; Mus musculus, B16)	IC50 (HCT116; Homo sapiens, HCT-116)	IC50 (HDAC8)	IC50 (HDAC4)	IC50 (MCF7; Homo sapiens, MCF7, 72 h)	IC50 (HDAC6)	melting point	SMILES	IC50 (HEK 293; Homo sapiens, HEK293)	selectivity against class IIa HDAC4 (HDAC6; HDAC6 versus HDAC4)	selectivity against class I HDAC8 (HDAC6; HDAC6 versus HDAC8)	IC50 (B16)	IC50 (HCT116)	IC50 (MCF7)	IC50 (HEK 293)
23 ± 13.7 µM	30.7 ± 15.8 µM	0.79 ± 0.16 µM	0.87 ± 0.31 µM	25.3 ± 3.21 µM	0.26 ± 0.02 µM		Cc1cccc(-n2c(SCc3ccc(C(=O)NO)cc3)nc3ccccc3c2=O)c1 [Compound 5g, N-hydroxy-4-(((4-oxo-3-(m-tolyl)-3,4-dihydroquinazolin-2-yl)thio)methyl)benzamide]	> 50 µM						
> 50 µM	> 50 µM	1.1 ± 0.3 µM	1.4 ± 0.5 µM	> 50 µM	0.17 ± 0.03 µM		O=C(NO)c1ccc(CSc2nc3ccccc3c(=O)n2-c2cccc(Cl)c2)cc1 [Compound 5h, 4-(((3-(3-chlorophenyl)-4-oxo-3,4-dihydroquinazolin-2-yl)thio)methyl)-N-hydroxybenzamide]	> 50 µM						
> 50 µM	40.4 ± 16 µM	2.9 ± 0.6 µM	8.4 ± 1.2 µM	> 50 µM	0.36 ± 0.04 µM		O=C(NO)c1ccc(CSc2nc3ccccc3c(=O)n2-c2ccccc2F)cc1 [Compound 5i, 4-(((3-(2-fluorophenyl)-4-oxo-3,4-dihydroquinazolin-2-yl)thio)methyl)-N-hydroxybenzamide]	> 50 µM						
> 50 µM	> 50 µM	4 ± 1 µM	4.3 ± 1.2 µM	> 50 µM	0.65 ± 0.07 µM		O=C(NO)c1ccc(CSc2nc3cc(Cl)ccc3c(=O)n2-c2ccccc2)cc1 [Compound 5j, 4-(((7-chloro-4-oxo-3-phenyl-3,4-dihydroquinazolin-2-yl)thio)methyl)-N-hydroxybenzamide]	> 50 µM						
> 50 µM	> 50 µM	3.3 ± 0.9 µM	0.56 ± 0.24 µM	> 50 µM	0.21 ± 0.05 µM		O=C(NO)c1ccc(CSc2nc3cc(Cl)ccc3c(=O)n2-c2ccccc2F)cc1 [Compound 5m, 4-(((7-chloro-3-(2-fluorophenyl)-4-oxo-3,4-dihydroquinazolin-2-yl)thio)methyl)-N-hydroxybenzamide]	> 50 µM						
> 50 µM	> 50 µM	2.7 ± 0.6 µM	0.4 ± 0.14 µM	> 50 µM	0.22 ± 0.05 µM		Cc1cccc2nc(SCc3ccc(C(=O)NO)cc3)n(-c3ccccc3)c(=O)c12 [Compound 5p, N-hydroxy-4-(((5-methyl-4-oxo-3-phenyl-3,4-dihydroquinazolin-2-yl)thio)methyl)benzamide]	> 50 µM						
> 50 µM	> 50 µM	5.9 ± 0.8 µM	0.91 ± 0.33 µM	> 50 µM	0.86 ± 0.06 µM		Cc1cccc2nc(SCc3ccc(C(=O)NO)cc3)n(-c3ccc(Cl)cc3)c(=O)c12 [Compound 5s, 4-(((3-(4-chlorophenyl)-5-methyl-4-oxo-3,4-dihydroquinazolin-2-yl)thio)methyl)-N-hydroxybenzamide]	> 50 µM						
> 50 µM	> 50 µM			> 50 µM			C#Cc1cccc(Nc2ncnc3cc(OCCOC)c(OCCOC)cc23)c1 [Erlotinib, reference compound]	> 50 µM						
1.99 ± 0.25 µM	1.34 ± 0.04 µM			12.7 ± 4.68 µM			CN1CCc2c(c3ccccc3n2Cc2ccc(C(=O)NO)cc2)C1 [Tubastatin, reference compound]	1.26 ± 0.29 µM						

— article PMC10341573, “Design, Synthesis, and Biological Evaluation of Novel Quinazolin-4(3H)-One-Based Histone Deacetylase 6 (HDAC6) Inhibitors for Anticancer Activity” (International Journal of Molecular Sciences, 2023)
